In patent US20160244437A1, “SUBSTITUTED PHENYLALANINE DERIVATIVES” (BAYER PHARMA AKTIENGESELLSCHAFT, priority 2013, published 2016):
Counter-ions that a name gives are not always drawn.

Columns and labels:
human and animal plasma = experiment: Determination of anticoagulatory activity: activated partial thromboplastin time (aPTT) in plasma; conditions: concentration of test substance which brings about a 1.5-fold extension of the aPTT; plasma in vitro, C.K. Prest kit
Description: The anticoagulatory activity of the test substances is determined in vitro in human and animal plasma (for example mouse, rat, rabbit, pig and dog plasma). To this end, blood is drawn off in a mixing ratio of sodium citrate/blood of 1:9 using a 0.11 molar sodium citrate solution as receiver. Immediately after the blood has been drawn off, it is mixed thoroughly and centrifuged at about 4000 g for 15 minutes. The supernatant is pipetted off.
The activated partial thromboplastin time (aPTT) is determined in the presence of varying concentrations of test substance or the corresponding solvent using a commercial test kit (C.K. Prest from Diagnostica Stago). The test compounds are incubated with the plasma and the PTT reagent (cephalin, kaolin) at 37° C. for 3 minutes. Coagulation is then started by addition of a 25 mM aqueous calcium chloride solution, and the time when coagulation occurs is determined. The concentration of test substance which brings about a 1.5-fold extension of the aPTT is determined.

human factor XIa = target: T1, human factor XIa (Homo sapiens, UniProt P03951); experiment: Measurement of FXIa inhibition (fluorogenic peptide substrate Boc-Glu(OBzl)-Ala-Arg-AMC); type: biochemical; conditions: factor XIa from Kordia 0.45 nM, 15 min pre-incubation, 30 min at 22° C., fluorescence
T1 construct: purchased Kordia
T1 sequence (P03951 388-625 limits assumed): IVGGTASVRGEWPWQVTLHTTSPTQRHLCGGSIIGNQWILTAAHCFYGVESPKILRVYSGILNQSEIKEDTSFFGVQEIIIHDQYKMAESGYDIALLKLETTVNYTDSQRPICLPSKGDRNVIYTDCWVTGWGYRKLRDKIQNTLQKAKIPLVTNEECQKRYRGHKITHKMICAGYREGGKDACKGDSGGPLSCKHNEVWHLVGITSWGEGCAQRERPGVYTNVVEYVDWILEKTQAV
T1 sequence (P03951 19-387 partner limits assumed): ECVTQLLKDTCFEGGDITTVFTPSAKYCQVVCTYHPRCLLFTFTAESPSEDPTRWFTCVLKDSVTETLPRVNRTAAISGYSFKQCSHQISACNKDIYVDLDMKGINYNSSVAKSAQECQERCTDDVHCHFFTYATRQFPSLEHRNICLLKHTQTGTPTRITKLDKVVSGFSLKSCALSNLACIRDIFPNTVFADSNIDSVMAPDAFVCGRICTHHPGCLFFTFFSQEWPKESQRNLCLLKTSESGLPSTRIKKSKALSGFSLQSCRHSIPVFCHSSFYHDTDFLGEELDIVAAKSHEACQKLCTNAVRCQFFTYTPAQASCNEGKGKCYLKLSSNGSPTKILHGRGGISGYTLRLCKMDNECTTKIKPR
Description: The factor XIa inhibition of the substances according to the invention is determined using a biochemical test system which utilizes the reaction of a peptidic factor XIa substrate to determine the enzymatic activity of human factor XIa. Here, factor XIa cleaves from the peptic factor XIa substrate the C-terminal aminomethylcoumarin (AMC), the fluorescence of which is measured. The determinations are carried out in microtitre plates.
Test substances are dissolved in dimethyl sulphoxide and serially diluted in dimethyl sulphoxide (3000 μM to 0.0078 μM; resulting final concentrations in the test: 50 μM to 0.00013 μM). In each case 1 μl of the diluted substance solutions is placed into the wells of white microtitre plates from Greiner (384 wells). Subsequently, the following are added successively: 20 μl of assay buffer (50 mmol/l Tris buffer pH 7.4; 100 mmol/l sodium chloride; 5 mmol/l calcium chloride; 0.1% bovine serum albumin) and 20 μl of factor XIa from Kordia (0.45 nM in assay buffer). After 15 min of incubation, the enzyme reaction is started by addition of 20 μl of the factor XIa substrate Boc-Glu(OBzl)-Ala-Arg-AMC dissolved in assay buffer (10 μM in assay buffer) from Bachem, the mixture is incubated at room temperature (22° C.) for 30 min and fluorescence is then measured (excitation: 360 nm, emission: 460 nm). The measured emissions of the test batches with test substance are compared to those of control batches without test substance (only dimethyl sulphoxide instead of test substance in dimethyl sulphoxide), and IC50 values are calculated from the concentration/activity relationships.

Compound: Cc1ccc(S(=O)(=O)N2CCCC2)cc1-c1cccc(C[C@H](NC(=O)[C@H]2CC[C@H](CN)CC2)C(=O)Nc2ccc(-c3nnn[nH]3)cc2)c1 [Example 2, trans-4-(Aminomethyl)-N-[(2S)-3-[2′-methyl-5′-(pyrrolidin-1-ylsulphonyl)biphenyl-3-yl]-1-oxo-1-{[4-(1H-tetrazol-5-yl)phenyl]amino}propan-2-yl]cyclohexanecarboxamide hydrochloride]
- aPTT (human and animal plasma): 0.08 µmol/L
- IC50 (human factor XIa): 1.1 nM

Compound: COc1ccc(-c2cccc(C[C@H](NC(=O)[C@H]3CC[C@H](CN)CC3)C(=O)Nc3ccc(-c4nnn[nH]4)cc3)c2)cc1S(=O)(=O)N1CCOCC1 [Example 8, trans-4-(Aminomethyl)-N-[(2S)-3-[4′-methoxy-3′-(morpholin-4-ylsulphonyl)biphenyl-3-yl]-1-oxo-1-{[4-(1H-tetrazol-5-yl)phenyl]amino}propan-2-yl]cyclohexanecarboxamide hydrochloride]
- aPTT (human and animal plasma): 0.41 µmol/L
- IC50 (human factor XIa): 3.8 nM

Compound: NC[C@H]1CC[C@H](C(=O)N[C@@H](Cc2cccc(-c3cnc(N)nc3)c2)C(=O)Nc2ccc(-c3nnn[nH]3)cc2)CC1 [Example 79, N-alpha-{[trans-4-(Aminomethyl)cyclohexyl]carbonyl}-3-(2-aminopyrimidin-5-yl)-N-[4-(1H-tetrazol-5-yl)phenyl]-L-phenylalaninamide hydrochloride]
- aPTT (human and animal plasma): 0.14 µmol/L
- IC50 (human factor XIa): 2.3 nM

Compound: COCCOCCOCCNC(=O)c1ccc(-c2cccc(C[C@H](NC(=O)[C@H]3CC[C@H](CN)CC3)C(=O)Nc3ccc(-c4nnn[nH]4)cc3)c2)c(C)c1 [Example 22, 3′-[(2S)-2-({[trans-4-(Aminomethyl)cyclohexyl]carbonyl}amino)-3-oxo-3-{[4-(1H-tetrazol-5-yl)phenyl]amino}propyl]-N-{2-[2-(2-methoxyethoxy)ethoxy]ethyl}-2-methylbiphenyl-4-carboxamide hydrochloride]
- aPTT (human and animal plasma): 0.34 µmol/L
- IC50 (human factor XIa): 2.4 nM

Compound: CC(C)N1CCC(NC(=O)c2cccc(-c3cccc(C[C@H](NC(=O)[C@H]4CC[C@H](CN)CC4)C(=O)Nc4ccc(-c5nnc(Cl)[nH]5)cc4)c3)c2)CC1 [Example 30, 3′-[(2S)-2-({[trans-4-(Aminomethyl)cyclohexyl]carbonyl}amino)-3-{[4-(3-chloro-4H-1,2,4-triazol-5-yl)phenyl]amino}-3-oxopropyl]-N-[1-(propan-2-yl)piperidin-4-yl]biphenyl-3-carboxamide hydrochloride]
- aPTT (human and animal plasma): 0.34 µmol/L
- IC50 (human factor XIa): 5.8 nM

Compound: Cc1ccc(S(=O)(=O)NCc2ccccc2)cc1-c1cccc(C[C@H](NC(=O)[C@H]2CC[C@H](CN)CC2)C(=O)Nc2ccc(-c3nnn[nH]3)cc2)c1 [Example 1, trans-4-(Aminomethyl)-N-[(2S)-3-[5′-(benzylsulphamoyl)-2′-methylbiphenyl-3-yl]-1-oxo-1-{[4-(1H-tetrazol-5-yl)phenyl]amino}propan-2-yl]cyclohexanecarboxamide hydrochloride]
- aPTT (human and animal plasma): 0.1 µmol/L
- IC50 (human factor XIa): 0.4 nM

Compound: Cc1nc(O)ccc1-c1cccc(C[C@H](NC(=O)[C@H]2CC[C@H](CN)CC2)C(=O)Nc2ccc(-c3nnn[nH]3)cc2)c1 [Example 98, N-alpha-{[trans-4-(Aminomethyl)cyclohexyl]carbonyl)}-3-(6-hydroxy-2-methylpyridin-3-yl)-N-[4-(1H-tetrazol-5-yl)phenyl]-L-phenylalaninamide hydrochloride]
- aPTT (human and animal plasma): 0.2 µmol/L
- IC50 (human factor XIa): 5.4 nM

Compound: Cc1ccc(S(=O)(=O)N2CCOCC2)cc1-c1cccc(C[C@H](NC(=O)[C@H]2CC[C@H](CN)CC2)C(=O)Nc2ccc3[nH]c(=O)[nH]c3c2)c1 [Example 10, trans-4-(Aminomethyl)-N-{(2S)-3-[2′-methyl-5′-(morpholin-4-ylsulphonyl)biphenyl-3-yl]-1-oxo-1-[(2-oxo-2,3-dihydro-1H-benzimidazol-5-yl)amino]propan-2-yl}cyclohexanecarboxamide hydrochloride]
- aPTT (human and animal plasma): 0.23 µmol/L
- IC50 (human factor XIa): 13 nM

Compound: CN(C)CCCOc1ccc(-c2cccc(C[C@H](NC(=O)[C@H]3CC[C@H](CN)CC3)C(=O)Nc3ccc(-c4nc(C(F)(F)C(F)(F)C(F)(F)C(=O)O)n[nH]4)cc3)c2)cn1 [Example 108, 4-(5-{4-[(N-{[trans-4-(Aminomethyl)cyclohexyl]carbonyl}-3-{6-[3-(dimethylamino)propoxy]pyridin-3-yl}-L-phenylalanyl)amino]phenyl}-1H-1,2,4-triazol-3-yl)-2,2,3,3,4,4-hexafluorobutanoic acid hydrochloride]
- aPTT (human and animal plasma): 0.25 µmol/L
- IC50 (human factor XIa): 5.5 nM

Compound: Cc1ccc(C(=O)NCCOCCOCCO)cc1-c1cccc(C[C@H](NC(=O)[C@H]2CC[C@H](CN)CC2)C(=O)Nc2ccc(-c3nnn[nH]3)cc2)c1 [Example 21, 3′-[(2S)-2-({[trans-4-(Aminomethyl)cyclohexyl]carbonyl}amino)-3-oxo-3-{[4-(1H-tetrazol-5-yl)phenyl]amino}propyl]-N-{2-[2-(2-hydroxyethoxy)ethoxy]ethyl}-6-methylbiphenyl-3-carboxamide hydrochloride]
- aPTT (human and animal plasma): 0.19 µmol/L
- IC50 (human factor XIa): 2.3 nM

Compound: NC[C@H]1CC[C@H](C(=O)N[C@@H](Cc2cccc(-c3cccnc3C(F)(F)F)c2)C(=O)Nc2ccc(-c3nnn[nH]3)cc2)CC1 [Example 81, N-alpha-{[trans-4-(Aminomethyl)cyclohexyl]carbonyl}-N-[4-(1H-tetrazol-5-yl)phenyl]-3-[2-(trifluoromethyl)pyridin-3-yl]-L-phenylalaninamide hydrochloride]
- aPTT (human and animal plasma): 0.3 µmol/L
- IC50 (human factor XIa): 2.5 nM

Compound: Cc1cc(S(=O)(=O)N(C)C)ccc1-c1cccc(C[C@H](NC(=O)[C@H]2CC[C@H](CN)CC2)C(=O)Nc2ccc(-c3nnn[nH]3)cc2)c1 [Example 7, trans-4-(Aminomethyl)-N-[(2S)-3-[4′-(dimethylsulphamoyl)-2′-methylbiphenyl-3-yl]-1-oxo-1-{[4-(1H-tetrazol-5-yl)phenyl]amino}propan-2-yl]cyclohexanecarboxamide hydrochloride]
- aPTT (human and animal plasma): 0.33 µmol/L
- IC50 (human factor XIa): 1.7 nM

Compound: Cc1cnccc1-c1cccc(C[C@H](NC(=O)[C@H]2CC[C@H](CN)CC2)C(=O)Nc2ccc(-c3n[nH]c(=O)[nH]3)cc2)c1 [Example 89, N-alpha-{[trans-4-(Aminomethyl)cyclohexyl]carbonyl}-3-(3-methylpyridin-4-yl)-N-[4-(5-oxo-4,5-dihydro-1H-1,2,4-triazol-3-yl)phenyl]-L-phenylalaninamide hydrochloride]
- aPTT (human and animal plasma): 0.46 µmol/L

Compound: Cc1ccc(C[C@H](NC(=O)[C@H]2CC[C@H](CN)CC2)C(=O)Nc2ccc(-c3nnn[nH]3)cc2)cc1-c1cccc(C(=O)NCCOCCOCCO)c1 [Example 28, 5′-[(2S)-2-({[trans-4-(Aminomethyl)cyclohexyl]carbonyl}amino)-3-oxo-3-{[4-(1H-tetrazol-5-yl)phenyl]amino}propyl]-N-{2-[2-(2-hydroxyethoxy)ethoxy]ethyl}-2′-methylbiphenyl-3-carboxamide hydrochloride]
- IC50 (human factor XIa): 5.2 nM

Compound: CN(C)c1ncc(-c2cccc(C[C@H](NC(=O)[C@H]3CC[C@H](CN)CC3)C(=O)Nc3ccc4[nH]c(=O)[nH]c4c3)c2)cn1 [Example 73, N-alpha-{[trans-4-(Aminomethyl)cyclohexyl]carbonyl}-3-[2-(dimethylamino)pyrimidin-5-yl]-N-(2-oxo-2,3-dihydro-1H-benzimidazol-5-yl)-L-phenylalaninamide hydrochloride]
- IC50 (human factor XIa): 25 nM

Compound: NC[C@H]1CC[C@H](C(=O)N[C@@H](Cc2cccc(-c3cncc(N)c3)c2)C(=O)Nc2ccc(-c3nnn[nH]3)cc2)CC1 [Example 72, N-alpha-{[trans-4-(Aminomethyl)cyclohexyl]carbonyl}-3-(5-aminopyridin-3-yl)-N-[4-(1H-tetrazol-5-yl)phenyl]-L-phenylalaninamide hydrochloride]
- IC50 (human factor XIa): 5.3 nM

Compound: NC[C@H]1CC[C@H](C(=O)N[C@@H](Cc2cccc(-c3cnc(O)nc3)c2)C(=O)Nc2ccc(-c3nnn[nH]3)cc2)CC1 [Example 99, N-alpha-{[trans-4-(Aminomethyl)cyclohexyl]carbonyl}-3-(2-hydroxypyrimidin-5-yl)-N-[4-(1H-tetrazol-5-yl)phenyl]-L-phenylalaninamide hydrochloride]
- IC50 (human factor XIa): 8.9 nM
